# Data as given in US20060069132A1, “Azolecarboxamide herbicides” (priority 2004, published 2006).
# Where two headings read alike, the source gives them in different places.
# Legend:
# [1] = system: rice; assay: Test B flooded paddy test; format: in vivo, Oryza sativa; details: 1000 g ai/ha, visual rating, scale 0 to 100 (0 no effect, 100 complete control), 13 to 15 days
# In short: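 Formulated test chemicals went onto postemergence plants measuring 2 to 18 cm, at one to four leaves. For the paddy assay, species had reached two leaves. Scoring took place 13–15 days later by eye, relative to untreated plants, using 0 for no effect up to 100 for full control.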
# [2] = system: large crabgrass; assay: Test B pre-/postemergence herbicide test; format: in vivo, Digitaria sanguinalis
# In short: (§1)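 Plants compared with untreated controls 13–15 days post-treatment and given a visual 0–100 injury score. Applications: preemergence to seeds; postemergence at 1- to 4-leaf (2–18 cm); paddy species flooded, 2-leaf stage. Vehicle non-phytotoxic, surfactant included.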
# [3] = system: barnyardgrass; assay: Test B pre-/postemergence herbicide test; format: in vivo, Echinochloa crus-galli
# In short: (§2)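 Herbicidal effect was judged by eye on a 0–100 scale after plants stood 13 to 15 days in the greenhouse following pre- or postemergence treatment with surfactant-containing formulations.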
# [4] = system: wild oat; assay: Test B postemergence herbicide test; format: in vivo, Avena fatua; details: scale 0 (no effect) to 100 (complete control); for Plant response rating, Oat, Wild: 500 g ai/ha, visual rating after 13 to 15 days
# In short: (§3)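 After treating 2-leaf paddy plants or 2–18 cm postemergence plants (1 to 4 leaves) with formulated chemical, researchers kept them in a greenhouse for 13–15 days. Effects were judged visually versus controls: 0 indicates none, 100 total control.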
# [5] = system: velvetleaf; assay: Test B pre-/postemergence herbicide test; format: in vivo, Abutilon theophrasti
# In short: as §1
# [6] = system: corn; assay: Test B pre-/postemergence herbicide test; format: in vivo, Zea mays
# In short: as §1
# [7] = system: barnyardgrass; assay: Test B flooded paddy test; format: in vivo, Echinochloa crus-galli; details: 1000 g ai/ha, visual rating, scale 0 to 100 (0 no effect, 100 complete control), 13 to 15 days
# In short: (§4)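 Treated at 2-leaf (paddy) or 1–4-leaf, 2–18 cm (postemergence); greenhouse 13–15 d; visual score vs control, 0 none to 100 complete control; dash = not tested.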
# [8] = system: blackgrass; assay: Test B postemergence herbicide test; format: in vivo, Alopecurus myosuroides; details: scale 0 (no effect) to 100 (complete control); for Plant response rating, Blackgrass: 500 g ai/ha, visual rating after 13 to 15 days
# In short: as §4
# [9] = system: wheat; assay: Test B postemergence herbicide test; format: in vivo, Triticum aestivum; design: key to Wheat plant response rating: 0 = no effect, 100 = complete control; details: scale 0 (no effect) to 100 (complete control); for Plant response rating, Wheat: Postemergence, 500 g ai/ha, visual rating after 13 to 15 days
# In short: as §3
# [10] = system: ducksalad; assay: Test B flooded paddy test; format: in vivo, Heteranthera limosa; details: 1000 g ai/ha, visual rating, scale 0 to 100 (0 no effect, 100 complete control), 13 to 15 days
# In short: as §4
# [11] = system: giant foxtail; assay: Test B pre-/postemergence herbicide test; format: in vivo, Setaria faberi; details: for pest or weed control at 125 g/ha / pest or weed control at 500 g/ha: Setaria faberi, 336 h
# In short: as §1
# [12] = system: Surinam grass; assay: Test B pre-/postemergence herbicide test; format: in vivo, Urochloa decumbens
# In short: as §1
# [13] = system: small flower umbrella sedge; assay: Test B flooded paddy test; format: in vivo, Cyperus difformis; details: 1000 g ai/ha, visual rating, scale 0 to 100 (0 no effect, 100 complete control), 13 to 15 days
# In short: as §4
# [14] = system: cocklebur; assay: Test B pre-/postemergence herbicide test; format: in vivo, Xanthium strumarium
# In short: as §2
# [15] = system: pigweed; assay: Test B pre-/postemergence herbicide test; format: in vivo, Amaranthus retroflexus
# In short: as §1
# [16] = Postemergence, 500 g ai/ha, visual rating after 13 to 15 days, scale 0 (no effect) to 100 (complete control)
# [17] = Preemergence, 500 g ai/ha, scale 0 to 100
# [18] = postemergence, 125 g ai/ha, visual rating, scale 0 (no effect) to 100 (complete control)
# [19] = preemergence, 125 g ai/ha, 0 to 100 scale, 0 is no effect, 100 is complete control
# [20] = postemergence, 125 g ai/ha, visual rating
smiles,measurement,setting,value
"CCn1nc(C(C)(C)C)cc1C(=O)Nc1cccc(C(=O)NCC(F)(F)F)c1 [Compound 43, 3-(1,1-dimethylethyl)-1-ethyl-N-[3-[[(2,2,2-trifluoroethyl)amino]carbonyl]-phenyl]-1H-pyrazole-5-carboxamide]",plant injury at 1000 g/ha,"[1]; Oryza sativa, 336 h, read-out: Rice plant response rating",50%
same,pest or weed control at 125 g/ha,"[2]; Digitaria sanguinalis, post-emergence, Postemergence, 125 g ai/ha, scale 0 (no effect) to 100 (complete control), read-out: Crabgrass, Large plant response rating",90%
same,pest or weed control at 500 g/ha,"[2]; Digitaria sanguinalis, post-emergence, Postemergence, 500 g ai/ha, visual rating after 13 to 15 days, scale 0 (no effect) to 100 (complete control), read-out: Plant response rating, Crabgrass, Large",90%
same,pest or weed control at 500 g/ha,"[2]; Digitaria sanguinalis, pre-emergence, Preemergence, 500 g ai/ha, scale 0 to 100, read-out: Crabgrass, Large plant response rating",100%
same,pest or weed control at 125 g/ha,"[3]; Echinochloa crus-galli, post-emergence, Postemergence, 125 g ai/ha, scale 0 (no effect) to 100 (complete control), read-out: Barnyardgrass plant response rating",20%
same,pest or weed control at 500 g/ha,"[3]; Echinochloa crus-galli, post-emergence, Postemergence, 500 g ai/ha, visual rating after 13 to 15 days, scale 0 (no effect) to 100 (complete control), read-out: Plant response rating, Barnyardgrass",70%
same,pest or weed control at 500 g/ha,"[3]; Echinochloa crus-galli, pre-emergence, Preemergence, 500 g ai/ha, scale 0 to 100, read-out: Barnyardgrass plant response rating",100%
same,pest or weed control at 125 g/ha,"[4]; Avena fatua, post-emergence, 336 h, Postemergence, 125 g ai/ha, read-out: Oat, Wild plant response rating",10%
same,"Plant response rating, Oat, Wild",[4]; Postemergence,30
same,pest or weed control at 500 g/ha,"[5]; Abutilon theophrasti, post-emergence, 336 h, Postemergence, 500 g ai/ha, visual rating after 13 to 15 days, scale 0 (no effect) to 100 (complete control), read-out: Plant response rating, Velvetleaf",90%
same,pest or weed control at 500 g/ha,"[5]; Abutilon theophrasti, pre-emergence, 336 h, Preemergence, 500 g ai/ha, scale 0 to 100, read-out: Velvetleaf plant response rating",100%
same,pest or weed control at 125 g/ha,"[5]; Abutilon theophrasti, pre-emergence, 336 h, preemergence, 125 g ai/ha, 0 to 100 scale, 0 is no effect, 100 is complete control, read-out: Plant response rating, Velvetleaf",30%
same,plant injury at 125 g/ha,"[6]; Zea mays, post-emergence, Postemergence, 125 g ai/ha, scale 0 (no effect) to 100 (complete control), read-out: Corn plant response rating",20%
same,"Corn plant response rating (crop injury, 0 = no effect, 100 = complete kill) at 500 g/ha","[6]; Zea mays, post-emergence, Postemergence, 500 g ai/ha, visual rating after 13 to 15 days, scale 0 (no effect) to 100 (complete control)",30%
same,plant injury at 500 g/ha,"[6]; Zea mays, pre-emergence, Preemergence, 500 g ai/ha, scale 0 to 100, read-out: Corn plant response rating",10%
same,pest or weed control at 1000 g/ha,"[7]; Echinochloa crus-galli, 336 h, read-out: Barnyardgrass plant response rating",80%
same,pest or weed control at 125 g/ha,"[8]; Alopecurus myosuroides, post-emergence, 336 h, Postemergence, 125 g ai/ha, read-out: Blackgrass plant response rating",20%
same,"Plant response rating, Blackgrass",[8]; Postemergence,20
same,"Plant response rating, Wheat",[9],30
same,pest or weed control at 1000 g/ha,"[10]; Heteranthera limosa, 336 h, read-out: Ducksalad plant response rating",70%
same,pest or weed control at 125 g/ha,"[11]; post-emergence, Postemergence, 125 g ai/ha, scale 0 (no effect) to 100 (complete control), read-out: Foxtail, Giant plant response rating",30%
same,pest or weed control at 500 g/ha,"[11]; post-emergence, Postemergence, 500 g ai/ha, visual rating after 13 to 15 days, scale 0 (no effect) to 100 (complete control), read-out: Plant response rating, Foxtail, Giant",50%
same,pest or weed control at 500 g/ha,"[11]; pre-emergence, Preemergence, 500 g ai/ha, scale 0 to 100, read-out: Foxtail, Giant plant response rating",80%
same,pest or weed control at 125 g/ha,"[11]; pre-emergence, preemergence, 125 g ai/ha, 0 to 100 scale, 0 is no effect, 100 is complete control, read-out: Plant response rating, Foxtail, Giant",10%
same,pest or weed control at 500 g/ha,"[12]; Urochloa decumbens, post-emergence, Postemergence, 500 g ai/ha, visual rating after 13 to 15 days, scale 0 (no effect) to 100 (complete control), read-out: Plant response rating, Surinam Grass",80%
same,pest or weed control at 500 g/ha,"[12]; Urochloa decumbens, pre-emergence, Preemergence, 500 g ai/ha, scale 0 to 100, read-out: Surinam Grass plant response rating",50%
same,pest or weed control at 125 g/ha,"[12]; Urochloa decumbens, pre-emergence, preemergence, 125 g ai/ha, 0 to 100 scale, 0 is no effect, 100 is complete control, read-out: Plant response rating, Surinam Grass",30%
same,pest or weed control at 1000 g/ha,"[13]; Cyperus difformis, 336 h, read-out: Sedge, Umbrella plant response rating",70%
same,pest or weed control at 125 g/ha,"[14]; Xanthium strumarium, post-emergence, Postemergence, 125 g ai/ha, scale 0 (no effect) to 100 (complete control), read-out: Cocklebur plant response rating",10%
same,pest or weed control at 500 g/ha,"[14]; Xanthium strumarium, post-emergence, Postemergence, 500 g ai/ha, visual rating after 13 to 15 days, scale 0 (no effect) to 100 (complete control), read-out: Plant response rating, Cocklebur",90%
same,pest or weed control at 500 g/ha,"[14]; Xanthium strumarium, pre-emergence, Preemergence, 500 g ai/ha, scale 0 to 100, read-out: Cocklebur plant response rating",10%
same,pest or weed control at 500 g/ha,"[15]; Amaranthus retroflexus, post-emergence, 336 h, Postemergence, 500 g ai/ha, visual rating after 13 to 15 days, scale 0 (no effect) to 100 (complete control), read-out: Plant response rating, Pigweed",100%
same,pest or weed control at 500 g/ha,"[15]; Amaranthus retroflexus, pre-emergence, 336 h, Preemergence, 500 g ai/ha, scale 0 to 100, read-out: Pigweed plant response rating",100%
same,pest or weed control at 125 g/ha,"[15]; Amaranthus retroflexus, pre-emergence, 336 h, preemergence, 125 g ai/ha, 0 to 100 scale, 0 is no effect, 100 is complete control, read-out: Plant response rating, Pigweed",100%
CCCn1nc(C(C)(C)C)cc1C(=O)Nc1cccc(C(=O)NCC)c1 [Compound 57],Rice plant response rating,[1],60
same,"Plant response rating, Crabgrass, Large",[2]; [16],20
same,"Crabgrass, Large plant response rating",[2]; [17],100
same,"Crabgrass, Large plant response rating",[2]; [18],10
same,"Plant response rating, Crabgrass, Large",[2]; [19],40
same,"Plant response rating, Barnyardgrass",[3]; [16],20
same,Barnyardgrass plant response rating,[3]; [17],70
same,Barnyardgrass plant response rating,[3]; [18],10
same,"Plant response rating, Barnyardgrass",[3]; [19],50
same,"Plant response rating, Oat, Wild",[4]; Postemergence,30
same,"Oat, Wild plant response rating",[4]; [20],30
same,"Plant response rating, Velvetleaf",[5]; [16],30
same,Velvetleaf plant response rating,[5]; [17],0
same,Velvetleaf plant response rating,[5]; [18],20
same,"Plant response rating, Velvetleaf",[5]; [19],0
same,"Plant response rating, Corn",[6]; [16],20
same,Corn plant response rating,[6]; [17],0
same,Corn plant response rating,[6]; [18],20
same,"Plant response rating, Corn",[6]; [19],0
same,Barnyardgrass plant response rating,[7],60
same,"Plant response rating, Blackgrass",[8]; Postemergence,10
same,Blackgrass plant response rating,[8]; [20],0
same,"Plant response rating, Wheat",[9],10
same,Wheat plant response rating,[9]; [20],10
same,Ducksalad plant response rating,[10],50
same,"Plant response rating, Foxtail, Giant",[11]; [16],30
same,"Foxtail, Giant plant response rating",[11]; [17],100
same,"Foxtail, Giant plant response rating",[11]; [18],20
same,"Plant response rating, Foxtail, Giant",[11]; [19],20
same,"Plant response rating, Surinam Grass",[12]; [16],20
same,Surinam Grass plant response rating,[12]; [17],40
same,Surinam Grass plant response rating,[12]; [18],10
same,"Plant response rating, Surinam Grass",[12]; [19],20
same,"Sedge, Umbrella plant response rating",[13],60
same,"Plant response rating, Cocklebur",[14]; [16],60
same,Cocklebur plant response rating,[14]; [17],10
same,Cocklebur plant response rating,[14]; [18],30
same,"Plant response rating, Cocklebur",[14]; [19],0
same,"Plant response rating, Pigweed",[15]; [16],80
same,Pigweed plant response rating,[15]; [17],100
same,Pigweed plant response rating,[15]; [18],70
same,"Plant response rating, Pigweed",[15]; [19],90
